Series [1] concerns the target T1, interaction between human NCS1 and Ric8a (Homo sapiens, UniProt P62166).
T1 construct: The NCS1 construct was subcloned into pCDNA3.1; expressed in transfected cells; host or cells: HEK293
The series is described as follows: Coimmunoprecipitation interference test of the NCS1/Ric8a interaction in lysate of transfected HEK293 cells. The series is classed as biochemical. The note with it: HEK293 cells transfected with V5-Ric8a and NCS1; lysate incubated with compound; FIG. 2. The protocol:
The DMSO lane represents a positive control of the interaction.
In order to check whether the interaction which has been previously detected (Romero-Pozuelo J et al. The guanine-exchange factor Ric8a binds to the Ca^2+ sensor NCS-1 to regulate synapse number and neurotransmitter release. J Cell Sci. 2014 Oct. 1; 127(Pt 19):4246-59) between the Drosophila Frq2 and Ric8a proteins, the coimmunoprecipitation of their human equivalents, NCS1 and Ric8a was tested. Human Ric8a was subcloned into nV5pCDNA3.1. The NCS1 construct was subcloned into pCDNA3.1. The cotransfections were carried out in HEK293 cells using the Superfect® (Qiagen®) reagent and lysed 48 hours later. Before its clarification, the lysates were incubated with the respective compound at 4° C. for the night (12 hours) with and without anti-V5 (Invitrogen®) or anti-NCS1 (Cell Signaling Technology®) antibodies as is indicated in each experiment. As a negative control, immunoprecipitations were carried out with an unrelated antibody. The following antibodies and dilutions were used with the Western blots: rabbit anti-NCS1 (1:1000) and mouse anti-V5 (1:2000). […] The Ric8a immunoprecipitation pulls NCS1 and vice versa. […]

Series [2] has as its target T2, Drosophila NCS-1 (Frq2) protein (Drosophila melanogaster, UniProt Q9VWX8).
T2 sequence (Q9VWX8 1-187): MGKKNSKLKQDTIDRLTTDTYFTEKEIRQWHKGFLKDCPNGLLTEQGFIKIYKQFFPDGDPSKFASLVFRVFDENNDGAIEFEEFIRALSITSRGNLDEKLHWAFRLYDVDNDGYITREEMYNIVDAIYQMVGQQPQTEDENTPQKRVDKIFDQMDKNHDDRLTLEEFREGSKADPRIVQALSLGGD
As to the kind of experiment: Crystallographic structure of the NCS-1 complex with FD44. The note with it: 1.6 Å dataset, FIG. 4. The series is classed as binding. The source says: FIG. 4 (A) Representation of the crystallographic structure of the NCS1/FD44 complex. The FD44 molecule is shown in sticks. The 2Fo-Fc map of the small molecule is shown at 1σ. (B) Representation of the electrostatic molecular surface of NCS1 bound to FD44 where the hydrophobic environment of FD44 is observed. (C) Detailed view of the amino acids in contact with FD44. The majority of the interactions are Van der Waals, except a strong hydrogen bond with T92, that is mediated by water molecule (with discontinuous black lines), and three weak hydrogen bonds where a C atom is the hydrogen donor and an O atom is the acceptor. (D) Close-up view of the cavity where FD44 is bound.
The purified Drosophila NCS-1 (Frq2) protein was dialyzed with water and concentrated to 10 mg ml-1 using a concentrator with a cut membrane of 10 kDa (Vivaspin®). 0.3 mg of FD44 were added to 250 μl of protein sample and incubated for 16 hours at 4° C. The insoluble fraction of the compound was separated by centrifugation. The preliminary crystallization experiments were carried out using the Innovadine® crystallization robot and commercial crystallization kits (Molecular Dimensions®, Qiagen®, Hampton Research® and Jena Bioscience®). […]

For series [3], the system named is Drosophila fmr1 mutant and wild type larvae.
Description: FIG. 3 A) volume of the neuromuscular plate normalized with respect to the wild type. Wt DMSO=wild type larvae grown in medium with DMSO carrier (200 micromolar), wt FD44=larvae grown in medium with FD44 dissolved in DMSO (200 micromolar), dFMRPmutDMSO=mutant larvae for the fmr1 gene grown in medium with DMSO, dFMRPmut FD44=mutant larvae grown in medium with FD44 (200 micromolar). B) Same genotypes computing the synapse number (immunopositive points for the nc82 monoclonal antibody). C) Same genotypes computing the number of collateral branches. D) Representative images of each genotype. Each image is an accumulation of all the confocal planes.
The mutating in the fmr1 gene corresponds to Fmr1^Δ50M # BL-6930 and the wild type corresponds to the Canton-S strain, all originating from the repository of the Bloomington Drosophila Stock Center. […] Once the medium had cooled, the vials were used normally for placing eggs and growing larvae at 25° C. until reaching the advanced LIII stage.
Reaching the advanced larva III stage, the animals were surgically processed to expose the neuromuscular junctures (NMJ) following the described method (Martin-Peña et al., Age-independent synaptogenesis by phosphoinositide 3 kinase. J Neurosci. 2006 Oct. 4; 26(40):10199-208). The nc82 antibody is a specific monoclonal for the Bruchpilot protein of Drosophila belonging to the CAST family of vertebrae and forms the presynaptic specialization. It was obtained from the Drosophila Hybridoma Bank (DSHB). The anti-HRP antibody produced in rabbits marks the neuronal membrane and was obtained from Jackson ImmunoResearch. A larval neuromuscular juncture was analyzed up to a total of 8-12 larvae per genotype to avoid growth artefacts. The serialized confocal sections of 1 micrometer thickness were analyzed and quantified using the Imaris® program.
The larval preparations were stained with the nc82 antibody to visualize the synapse and with the anti-HRP to visualize the membrane of the axon. Lastly, the synapse number was measured in images obtained in confocal microscopy and quantified by means of Imaris® software.

T1 sequence (P62166 2-190 limits assumed): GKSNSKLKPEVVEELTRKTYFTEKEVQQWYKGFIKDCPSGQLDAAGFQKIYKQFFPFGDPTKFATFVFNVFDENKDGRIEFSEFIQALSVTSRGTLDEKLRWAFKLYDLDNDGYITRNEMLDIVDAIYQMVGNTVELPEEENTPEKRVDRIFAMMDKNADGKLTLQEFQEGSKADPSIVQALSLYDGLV

As for `O=C(CN1CCCCC1)NN1c2ccccc2Sc2ccccc21` [FD44], the “inhibition of the interaction between human NCS1 and Ric8a (coimmunoprecipitation, Western blot)” value in series [1] is listed as “effectively inhibits this interaction”. Also, the “binding mode in the NCS-1 crystal complex” value in series [2] was “inserted in the N-terminal part of the elongated hydrophobic groove”. In addition, the “neuronal projection volume (volume of the neuromuscular plate)” value in series [3] (fmr1 mutant larvae, 200 micromolar in culture medium, FIG. 3A) was “reverts the neuronal projection volume to the normal levels of the controls”. Moreover, the “synapse number (nc82 immunopositive points)” value in series [3] (fmr1 mutant larvae, 200 micromolar in culture medium, FIG. 3B) is reported as “reversion in the mutant which has ingested FD44”. The “effect on wild type control (volume of the neuromuscular plate)” value in series [3] (in vivo) is recorded as “innocuous for the wild type control”. The “collateral branch number (neuritogenesis)” value in series [3] (wild type and fmr1 mutant larvae, 200 micromolar in culture medium, FIG. 3C) is recorded as “does not show any change”.

Source of the values: patent US20190076439A1, “AMINOPHENOTHIAZINES FOR MODULATING THE NUMBER OF SYNAPSES” (CONSEJO SUPERIOR DE INVESTIGACIONES CIENTIFICAS (CSIC), priority 2015, published 2019).
